One data set has as its target T1, EPHA8 (Homo sapiens, UniProt P29322).
T1 construct: purchased DiscoveRx (KINOMEscan service)
T1 sequence (P29322 28-1005): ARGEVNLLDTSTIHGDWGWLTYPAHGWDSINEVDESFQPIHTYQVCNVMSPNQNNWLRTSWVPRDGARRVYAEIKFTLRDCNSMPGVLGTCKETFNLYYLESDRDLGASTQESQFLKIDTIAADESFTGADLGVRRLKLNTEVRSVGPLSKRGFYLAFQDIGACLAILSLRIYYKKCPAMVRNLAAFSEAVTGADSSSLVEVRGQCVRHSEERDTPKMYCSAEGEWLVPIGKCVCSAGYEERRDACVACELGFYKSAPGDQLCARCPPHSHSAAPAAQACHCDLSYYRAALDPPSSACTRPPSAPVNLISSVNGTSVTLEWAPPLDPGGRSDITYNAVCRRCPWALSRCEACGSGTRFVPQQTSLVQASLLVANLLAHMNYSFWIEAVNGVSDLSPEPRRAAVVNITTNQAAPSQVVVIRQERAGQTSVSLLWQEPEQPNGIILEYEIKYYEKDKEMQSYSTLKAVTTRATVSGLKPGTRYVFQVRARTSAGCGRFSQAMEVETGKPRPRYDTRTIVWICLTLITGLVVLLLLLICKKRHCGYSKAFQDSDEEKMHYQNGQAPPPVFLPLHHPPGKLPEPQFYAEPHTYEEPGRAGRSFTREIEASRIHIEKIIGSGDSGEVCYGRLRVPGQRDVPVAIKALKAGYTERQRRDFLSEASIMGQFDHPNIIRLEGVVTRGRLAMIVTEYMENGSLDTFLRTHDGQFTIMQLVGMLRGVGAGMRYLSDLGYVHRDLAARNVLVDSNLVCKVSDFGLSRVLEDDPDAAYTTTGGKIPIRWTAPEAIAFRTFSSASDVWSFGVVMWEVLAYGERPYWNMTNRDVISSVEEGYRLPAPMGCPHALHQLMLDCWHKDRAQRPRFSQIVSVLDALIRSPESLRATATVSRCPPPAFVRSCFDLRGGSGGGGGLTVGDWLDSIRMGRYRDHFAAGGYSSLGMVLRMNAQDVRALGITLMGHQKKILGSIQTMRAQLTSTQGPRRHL
Description: KINOMEscan active-site competitive binding assay. The conditions noted are these: slash = two separate measurements.

The target in the next data set is T2, DDR1 (Homo sapiens, UniProt Q08345).
T2 construct: purchased DiscoveRx (KINOMEscan service)
Description: KINOMEscan active-site competitive binding assay. The conditions noted are these: slash = two separate measurements.

Data set [1] deals with EGFR family kinases, the protein kinase C family, insulin and insulin‐like growth factor receptor kinases, MET, MEK family kinases (with the exception of …). Description: KINOMEscan active-site competitive binding assay, kinases not inhibited. The conditions noted are these: concentrations up to 1 μmol/L; data not shown.
Data set [2] is described as follows: Plasma protein binding in vitro (Transil), human plasma. It counts as in vitro ADME. As to conditions: for Proportion of protein‐bound drug / Unbound fraction, fold lower than that of regorafenib / Major plasma protein to which the compound was bound: human plasma; for Major plasma protein to which the compound was bound: data not shown; for Unbound fraction, fold lower in human than in murine plasma: human versus murine plasma. The procedure:
A radioactivity analysis was performed by liquid scintillation counting. […] All compounds were tested for stability at the incubation conditions used.

A further data set concerns the target T3, CDKL2 (Homo sapiens, UniProt Q92772).
T3 construct: purchased DiscoveRx (KINOMEscan service)
T3 sequence (Q92772 1-493): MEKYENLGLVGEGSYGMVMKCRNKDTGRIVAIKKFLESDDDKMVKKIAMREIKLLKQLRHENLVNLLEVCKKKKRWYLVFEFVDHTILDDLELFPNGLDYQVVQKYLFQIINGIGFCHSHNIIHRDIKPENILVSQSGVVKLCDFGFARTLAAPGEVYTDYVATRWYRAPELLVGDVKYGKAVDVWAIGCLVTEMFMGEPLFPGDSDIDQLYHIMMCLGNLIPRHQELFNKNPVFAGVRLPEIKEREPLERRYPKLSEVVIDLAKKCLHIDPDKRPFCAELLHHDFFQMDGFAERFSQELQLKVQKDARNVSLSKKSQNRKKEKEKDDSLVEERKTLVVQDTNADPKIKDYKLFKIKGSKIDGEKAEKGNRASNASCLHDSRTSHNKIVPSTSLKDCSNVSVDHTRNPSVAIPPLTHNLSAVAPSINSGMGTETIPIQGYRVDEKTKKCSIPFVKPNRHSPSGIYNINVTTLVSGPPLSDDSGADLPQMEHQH
Nature of the data set: KINOMEscan active-site competitive binding assay. The conditions noted are these: slash = two separate measurements.

A further data set addresses T4, p38-alpha (Homo sapiens, UniProt Q16539).
T4 construct: purchased DiscoveRx (KINOMEscan service)
Description: KINOMEscan active-site competitive binding assay. The conditions noted are these: slash = two separate measurements.

The target of a further data set is T5, ERK8 (Homo sapiens, UniProt Q8TD08).
T5 construct: purchased DiscoveRx (KINOMEscan service)
T5 sequence (Q8TD08 1-544): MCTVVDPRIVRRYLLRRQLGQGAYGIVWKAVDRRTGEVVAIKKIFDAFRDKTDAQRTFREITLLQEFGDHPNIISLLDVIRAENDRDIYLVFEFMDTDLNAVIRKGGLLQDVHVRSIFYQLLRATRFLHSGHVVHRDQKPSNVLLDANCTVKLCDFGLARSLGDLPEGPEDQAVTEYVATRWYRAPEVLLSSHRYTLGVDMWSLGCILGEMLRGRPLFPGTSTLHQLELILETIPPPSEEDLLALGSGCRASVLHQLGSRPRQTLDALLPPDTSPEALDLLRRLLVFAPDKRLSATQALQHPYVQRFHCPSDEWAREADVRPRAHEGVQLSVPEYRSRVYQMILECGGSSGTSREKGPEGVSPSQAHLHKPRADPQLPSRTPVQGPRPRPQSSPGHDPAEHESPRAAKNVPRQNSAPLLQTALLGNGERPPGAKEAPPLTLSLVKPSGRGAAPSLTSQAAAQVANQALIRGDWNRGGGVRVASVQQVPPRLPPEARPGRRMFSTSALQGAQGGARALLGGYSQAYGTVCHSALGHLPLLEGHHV
Nature of the data set: KINOMEscan active-site competitive binding assay. As to conditions: slash = two separate measurements.

The next data set addresses T6, JNK2 (Homo sapiens, UniProt P45984).
T6 construct: purchased DiscoveRx (KINOMEscan service)
Nature of the data set: KINOMEscan active-site competitive binding assay. As to conditions: slash = duplicate values.

Another data set has as its target T7, CSF1R (Homo sapiens, UniProt P07333).
T7 construct: purchased DiscoveRx (KINOMEscan service)
Description: KINOMEscan active-site competitive binding assay. The conditions noted are these: slash = two separate measurements.

The mark [3] stands for this setting: human, male, plasma, arithmetic mean ± SD.

Molecules are shown by their SMILES. Where “and” joins values, the source holds several entries; their conditions need not be identical. Equal entries are not always repeated.

T2 sequence (Q08345 19-913): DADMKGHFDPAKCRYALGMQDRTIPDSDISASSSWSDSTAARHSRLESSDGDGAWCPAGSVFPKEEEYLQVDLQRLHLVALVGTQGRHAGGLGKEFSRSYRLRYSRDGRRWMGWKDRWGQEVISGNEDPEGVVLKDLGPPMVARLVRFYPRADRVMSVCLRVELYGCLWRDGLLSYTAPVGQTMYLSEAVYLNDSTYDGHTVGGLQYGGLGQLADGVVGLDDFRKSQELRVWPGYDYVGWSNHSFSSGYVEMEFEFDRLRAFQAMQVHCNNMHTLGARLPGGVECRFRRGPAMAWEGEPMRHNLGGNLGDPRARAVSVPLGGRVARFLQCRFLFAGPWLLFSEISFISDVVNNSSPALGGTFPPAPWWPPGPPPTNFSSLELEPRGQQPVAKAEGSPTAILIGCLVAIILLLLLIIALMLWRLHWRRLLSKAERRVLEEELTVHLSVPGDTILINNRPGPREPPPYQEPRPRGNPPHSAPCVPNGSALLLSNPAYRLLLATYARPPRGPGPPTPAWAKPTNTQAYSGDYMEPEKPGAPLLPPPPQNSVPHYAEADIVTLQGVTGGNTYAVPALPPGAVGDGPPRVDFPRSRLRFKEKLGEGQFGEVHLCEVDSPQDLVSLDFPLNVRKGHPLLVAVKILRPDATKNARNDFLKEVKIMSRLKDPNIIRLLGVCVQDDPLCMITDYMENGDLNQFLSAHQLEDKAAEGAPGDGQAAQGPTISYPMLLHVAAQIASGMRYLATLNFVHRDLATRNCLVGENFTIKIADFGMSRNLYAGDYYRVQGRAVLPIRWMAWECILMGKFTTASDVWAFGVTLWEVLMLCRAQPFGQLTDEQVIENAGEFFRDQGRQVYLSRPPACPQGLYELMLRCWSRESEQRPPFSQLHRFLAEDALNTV
T6 sequence (P45984 whole entry): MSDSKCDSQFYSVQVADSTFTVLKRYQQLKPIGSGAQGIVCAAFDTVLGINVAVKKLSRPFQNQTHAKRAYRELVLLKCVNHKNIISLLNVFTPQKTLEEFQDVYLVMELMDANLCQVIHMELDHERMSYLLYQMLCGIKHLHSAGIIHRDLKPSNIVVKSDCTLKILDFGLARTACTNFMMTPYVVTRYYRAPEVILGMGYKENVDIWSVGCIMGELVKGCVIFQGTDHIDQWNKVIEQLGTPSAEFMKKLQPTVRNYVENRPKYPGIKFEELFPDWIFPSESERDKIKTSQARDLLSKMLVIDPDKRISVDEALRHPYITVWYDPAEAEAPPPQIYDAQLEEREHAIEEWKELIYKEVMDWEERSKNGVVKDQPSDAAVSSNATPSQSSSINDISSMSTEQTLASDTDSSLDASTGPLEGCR
T4 sequence (Q16539 whole entry): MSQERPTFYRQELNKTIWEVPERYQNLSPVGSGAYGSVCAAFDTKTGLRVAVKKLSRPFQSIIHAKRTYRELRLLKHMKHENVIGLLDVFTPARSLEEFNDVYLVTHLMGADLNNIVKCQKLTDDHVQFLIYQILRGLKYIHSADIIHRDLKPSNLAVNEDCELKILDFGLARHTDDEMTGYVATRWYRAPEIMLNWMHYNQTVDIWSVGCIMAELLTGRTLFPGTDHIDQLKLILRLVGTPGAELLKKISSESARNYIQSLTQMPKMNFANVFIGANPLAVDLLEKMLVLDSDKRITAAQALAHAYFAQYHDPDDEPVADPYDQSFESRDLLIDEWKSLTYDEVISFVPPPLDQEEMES
T7 sequence (P07333 20-972): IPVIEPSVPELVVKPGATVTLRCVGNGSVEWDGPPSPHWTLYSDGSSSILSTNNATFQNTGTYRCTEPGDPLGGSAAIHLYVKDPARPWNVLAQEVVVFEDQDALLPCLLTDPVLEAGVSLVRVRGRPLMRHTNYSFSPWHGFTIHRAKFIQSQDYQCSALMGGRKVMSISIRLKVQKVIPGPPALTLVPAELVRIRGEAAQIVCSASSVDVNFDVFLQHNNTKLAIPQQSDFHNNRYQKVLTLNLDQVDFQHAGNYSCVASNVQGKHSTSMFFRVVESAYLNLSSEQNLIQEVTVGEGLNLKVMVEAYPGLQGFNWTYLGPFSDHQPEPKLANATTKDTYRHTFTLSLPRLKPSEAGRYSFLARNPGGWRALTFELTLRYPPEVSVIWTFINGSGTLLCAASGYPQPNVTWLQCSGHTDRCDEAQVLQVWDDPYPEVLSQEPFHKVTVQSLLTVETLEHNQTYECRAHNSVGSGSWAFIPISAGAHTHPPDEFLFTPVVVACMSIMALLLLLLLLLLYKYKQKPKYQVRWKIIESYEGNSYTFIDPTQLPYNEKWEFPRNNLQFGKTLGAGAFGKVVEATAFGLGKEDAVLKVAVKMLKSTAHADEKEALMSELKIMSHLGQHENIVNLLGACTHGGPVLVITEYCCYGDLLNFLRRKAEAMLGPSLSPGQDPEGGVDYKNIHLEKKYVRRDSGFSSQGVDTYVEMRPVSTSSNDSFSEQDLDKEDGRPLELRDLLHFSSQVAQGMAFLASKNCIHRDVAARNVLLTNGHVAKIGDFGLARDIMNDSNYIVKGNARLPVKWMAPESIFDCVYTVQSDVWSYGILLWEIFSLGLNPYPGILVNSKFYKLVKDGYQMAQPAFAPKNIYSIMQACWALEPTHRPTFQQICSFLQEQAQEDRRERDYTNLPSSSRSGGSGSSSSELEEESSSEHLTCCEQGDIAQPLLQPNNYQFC

Broadly, the Kd is the constant that tells how readily two partners part at equilibrium. Higher therefore signals weaker binding. On to `CNC(=O)c1cc(Oc2ccc(NC(=O)Nc3ccc(Cl)c(C(F)(F)F)c3)c(F)c2)cc[n+]1[O-]` [M‐2], for which the Kd on EPHA8 was 61 nM; on DDR1 it was 0.5 nM; at CDKL2, 76 nM; at p38-alpha, 17 nM; on ERK8, 16 nM; on JNK2 it was 67 nM and 44 nM. In addition, binding at CSF1R was characterised by a dissociation constant (Kd) of 21 nM. Besides, the Inhibition of binding entry in [1] was “No inhibition”. Moreover, in data set [2], the “Proportion of protein‐bound drug” value is on record as “more than 99%”. The “Unbound fraction, fold lower than that of regorafenib” value in data set [2] was “about 2.5 fold”. The “Major plasma protein to which the compound was bound” value in data set [2] is reported as “albumin”. The “Unbound fraction, fold lower in human than in murine plasma” value in [2] is given as ~ 5 fold. For the same molecule, the “Unbound fraction (%)” value in data set [2] (setting [3]) turned out to be 0.188 ± 0.004%.
As for `NC(=O)c1cc(Oc2ccc(NC(=O)Nc3ccc(Cl)c(C(F)(F)F)c3)c(F)c2)cc[n+]1[O-]` [M‐5], the Kd on EPHA8 worked out at 73 nM; at DDR1, 0.4 nM; at CDKL2, 1100 nM; at p38-alpha, 48 nM; on ERK8, 26 nM; on JNK2 it was 670 nM. Besides, binding on CSF1R was characterised by a dissociation constant (Kd) of 13 nM. The Inhibition of binding result in data set [1] is on record as “No inhibition”. Moreover, the “Proportion of protein‐bound drug” value in [2] is reported as “more than 99%”. Besides, the “Unbound fraction, fold lower than that of regorafenib” value in data set [2] is on record as “approximately 10 fold”. Also, in data set [2], the “Major plasma protein to which the compound was bound” value was “albumin”. The “Unbound fraction, fold lower in human than in murine plasma” value in data set [2] is ~ 8 fold. Moreover, in [2] (setting [3]), the “Unbound fraction (%)” value is 0.053 ± 0.013%.
The fraction unbound is free concentration divided by total concentration. A high value points to weak binding. Take `CNC(=O)c1cc(Oc2ccc(NC(=O)Nc3ccc(Cl)c(C(F)(F)F)c3)c(F)c2)ccn1` [Regorafenib, reference compound]: the Kd is 140 nM and 130 nM on EPHA8; 0.9 nM and 0.8 nM on DDR1; 48 nM and 58 nM on CDKL2; 58 nM and 48 nM on p38-alpha; 25 nM and 17 nM on ERK8; 1400 nM and 1900 nM at JNK2. On CSF1R, the Kd was 43 nM and 10 nM. Further, the Inhibition of binding result in data set [1] was “No inhibition”. In addition, in data set [2], the “Proportion of protein‐bound drug” value is reported as “more than 99%”. The “Major plasma protein to which the compound was bound” value in [2] was “albumin”. The “Unbound fraction (%)” value in data set [2] (setting [3]) was found to be 0.488 ± 0.091%. In [2] (male, human, plasma, arithmetic mean ± SD), this molecule gave a fraction unbound of around 0.005.

(Values after publication PMC5119973 (Cancer Medicine, 2016).)
